# Assay results: patent publication US9861590B2, “Self-supporting films for delivery of therapeutic agents” (priority 2010, dated 2018)
# Where a name gives a salt, the structure may show the parent alone.
# Test: Saturation and payload limits for dip coating bupivacaine HCl solution on polyester mesh (FIG. 8)
# Type: physicochemical
# Details: Parietex monofilament polyester mesh without polymer film
# Text: Further, it is believed that spraying films on a medical device (e.g., mesh) compared to other conventional methods, such as dip coating, provides increased loading of the therapeutic agent.
# More particularly FIG. 8 illustrates the loading limits for a polyester mesh (Parietex™ monofilament mesh) without a polymer film.
smiles,measurement,setting,value
"CCCCN1CCCCC1C(=O)Nc1c(C)cccc1C (centres unmarked) [bupivacaine HCl, bupivacaine hydrochloride]",saturation and payload limits for dip coating solution,solution in MeOH,12 % w/v
same,saturation and payload limits for dip coating solution,solution in water,5 % w/v
